# Test system: clinically isolated S.mutans strains
# Test: Bactericidal activity against clinically isolated S. mutans strains (CFU counting)
# Assay type: cell-based, Streptococcus mutans
# Details: for bacterial viability (survival): 10 min, CFU
# Procedure: Table S3 The bactericidal activity of pHly -1 NPs and CHX against clinically isolated S.mutans strains a
# “a” represents the bacterial viability after the pHly-1 NPs and CHX treatment for 10 min. The killing activity of pHly -1 NPs and CHX was measured against clinically isolated S.mutans strains by counting the CFU of alive bacteria. […]
# Minimal inhibition concentration (MIC) determination . S.mutans UA159 (ATCC 700610) and 20 clinical S.mutans strains were used. S.mutans UA159 was purchased from Shanghai Biofeng Biotechnology Co., LTD. These bacteria grown in brain heart infusion broth (BHI, Beijing Land Bridge, China) at 37 °C under anaerobic conditions. […]
# Bacterial killing by pHly-1 NPs at various pHs. pHly-1 NPs were diluted in BHI medium of different pHs (pH 4.5, 5.5, 6.8, and 7.0) to obtain specific diluted solutions (final volume of 200 μ L). 1 μ L bacterial suspension (2×10^8 CFU/mL) in the logarithmic phase was added into corresponding diluted solutions and mixed individually. After being incubated for 10 min at 37 °C under anaerobic conditions, aliquots of 20 μL bacterial suspension were plated on BHI agar plates. The bacterial killing activity of pHly -1 NPs was measured by counting the CFU of alive bacteria with agar plating after incubation under anaerobic conditions for 48 h at 37 °C. The results were determined and presented of three repeats. Bacterial survival(%) = CFU of bacteria treated with drugs/CFU of bacteria treated with negative control× 100% 2. […]
# For SEM, S. mutans UA159 was treated by the same way to SYTO 9/PI double staining asay and then harvested, washed, and then fixed in 2.5 % glutaraldehyde for 3 h. After dehydration by serial concentrations of ethanol solutions (10%, 25%, 50%, 75%, 95%, and 100%) and lyophiliz ation overnight, the lyophilized samples were coated with goldand then photographed by SEM.
smiles,measurement,setting,value
"[H]/N=C(\N/C(=N/[H])NCCCCCCNC(=N)NC(=N)Nc1ccc(Cl)cc1)Nc1ccc(Cl)cc1 [CHX, chlorhexidine]",viability,"55 μM, in 4 strains",over 90%
same,bacterial viability (survival),"strain CS-1, pH 4.5, 22 μM",95.2%
same,bacterial viability (survival),"strain CS-1, pH 4.5, 55 μM",54%
same,bacterial viability (survival),"strain CS-1, pH 5.5, 22 μM",91.6%
same,bacterial viability (survival),"strain CS-1, pH 5.5, 55 μM",31.3%
same,bacterial viability (survival),"strain CS-2, pH 4.5, 22 μM",96.4%
same,bacterial viability (survival),"strain CS-2, pH 4.5, 55 μM",69.1%
same,bacterial viability (survival),"strain CS-2, pH 5.5, 22 μM",86.9%
same,bacterial viability (survival),"strain CS-2, pH 5.5, 55 μM",76.6%
same,bacterial viability (survival),"strain CS-4, pH 4.5, 22 μM",100%
same,bacterial viability (survival),"strain CS-4, pH 4.5, 55 μM",66.4%
same,bacterial viability (survival),"strain CS-4, pH 5.5, 22 μM",100%
same,bacterial viability (survival),"strain CS-4, pH 5.5, 55 μM",74.6%
same,bacterial viability (survival),"strain CS-5, pH 4.5, 22 μM",100%
same,bacterial viability (survival),"strain CS-5, pH 4.5, 55 μM",67.7%
same,bacterial viability (survival),"strain CS-5, pH 5.5, 22 μM",89.6%
same,bacterial viability (survival),"strain CS-5, pH 5.5, 55 μM",54.9%
same,bacterial viability (survival),"strain CS-6, pH 4.5, 22 μM",106%
same,bacterial viability (survival),"strain CS-6, pH 4.5, 55 μM",67.0%
same,bacterial viability (survival),"strain CS-6, pH 5.5, 22 μM",95.6%
same,bacterial viability (survival),"strain CS-6, pH 5.5, 55 μM",88.8%
same,bacterial viability (survival),"strain CS-7, pH 4.5, 22 μM",97.0%
same,bacterial viability (survival),"strain CS-7, pH 4.5, 55 μM",54%
same,bacterial viability (survival),"strain CS-7, pH 5.5, 22 μM",91.6%
same,bacterial viability (survival),"strain CS-7, pH 5.5, 55 μM",67.7%
same,bacterial viability (survival),"strain CS-8, pH 4.5, 22 μM",79.5%
same,bacterial viability (survival),"strain CS-8, pH 4.5, 55 μM",49.4%
same,bacterial viability (survival),"strain CS-8, pH 5.5, 22 μM",81.8%
same,bacterial viability (survival),"strain CS-8, pH 5.5, 55 μM",61.8%
same,bacterial viability (survival),"strain CS-9, pH 4.5, 22 μM",83.9%
same,bacterial viability (survival),"strain CS-9, pH 4.5, 55 μM",77%
same,bacterial viability (survival),"strain CS-9, pH 5.5, 22 μM",73.8%
same,bacterial viability (survival),"strain CS-9, pH 5.5, 55 μM",46.9%
same,bacterial viability (survival),"strain CS-10, pH 4.5, 22 μM",83.6%
same,bacterial viability (survival),"strain CS-10, pH 4.5, 55 μM",52.3%
same,bacterial viability (survival),"strain CS-10, pH 5.5, 22 μM",68.9%
same,bacterial viability (survival),"strain CS-10, pH 5.5, 55 μM",68.2%
same,bacterial viability (survival),"strain CS-11, pH 4.5, 22 μM",100%
same,bacterial viability (survival),"strain CS-11, pH 4.5, 55 μM",50.7%
same,bacterial viability (survival),"strain CS-11, pH 5.5, 22 μM",140%
same,bacterial viability (survival),"strain CS-11, pH 5.5, 55 μM",59.4%
same,bacterial viability (survival),"strain CS-12, pH 4.5, 22 μM",98.6%
same,bacterial viability (survival),"strain CS-12, pH 4.5, 55 μM",91.1%
same,bacterial viability (survival),"strain CS-12, pH 5.5, 22 μM",110%
same,bacterial viability (survival),"strain CS-12, pH 5.5, 55 μM",74.2%
same,bacterial viability (survival),"strain CS-13, pH 4.5, 22 μM",93.5%
same,bacterial viability (survival),"strain CS-13, pH 4.5, 55 μM",87.4%
same,bacterial viability (survival),"strain CS-13, pH 5.5, 22 μM",74.0%
same,bacterial viability (survival),"strain CS-13, pH 5.5, 55 μM",65.8%
same,bacterial viability (survival),"strain CS-14, pH 4.5, 22 μM",100%
same,bacterial viability (survival),"strain CS-14, pH 4.5, 55 μM",51.9%
same,bacterial viability (survival),"strain CS-14, pH 5.5, 22 μM",74.2%
same,bacterial viability (survival),"strain CS-14, pH 5.5, 55 μM",71.6%
same,bacterial viability (survival),"strain CS-16, pH 4.5, 22 μM",95.9%
same,bacterial viability (survival),"strain CS-16, pH 4.5, 55 μM",10.9%
same,bacterial viability (survival),"strain CS-16, pH 5.5, 22 μM",87.9%
same,bacterial viability (survival),"strain CS-16, pH 5.5, 55 μM",20%
same,bacterial viability (survival),"strain CS-17, pH 4.5, 22 μM",108.2%
same,bacterial viability (survival),"strain CS-17, pH 4.5, 55 μM",92.3%
same,bacterial viability (survival),"strain CS-17, pH 5.5, 22 μM",102.0%
same,bacterial viability (survival),"strain CS-17, pH 5.5, 55 μM",48.3%
same,bacterial viability (survival),"strain CS-18, pH 4.5, 22 μM",68.2%
same,bacterial viability (survival),"strain CS-18, pH 4.5, 55 μM",71.5%
same,bacterial viability (survival),"strain CS-18, pH 5.5, 22 μM",114.8%
same,bacterial viability (survival),"strain CS-18, pH 5.5, 55 μM",92.2%
same,bacterial viability (survival),"strain CS-19, pH 4.5, 22 μM",93.0%
same,bacterial viability (survival),"strain CS-19, pH 4.5, 55 μM",101%
same,bacterial viability (survival),"strain CS-19, pH 5.5, 22 μM",96.9%
same,bacterial viability (survival),"strain CS-19, pH 5.5, 55 μM",87.9%
same,bacterial viability (survival),"strain CS-20, pH 4.5, 22 μM",91.0%
same,bacterial viability (survival),"strain CS-20, pH 4.5, 55 μM",100%
same,bacterial viability (survival),"strain CS-20, pH 5.5, 22 μM",103.9%
same,bacterial viability (survival),"strain CS-20, pH 5.5, 55 μM",88.9%

# Reference: article PMC9254247, “Dual-sensitive antibacterial peptide nanoparticles prevent dental caries” (Theranostics, 2022)
